Source: PMC9632963, “Preclinical characterization and phase I clinical trial of CT053PTSA targets MET, AXL, and VEGFR2 in patients with advanced solid tumors” (Frontiers in Immunology, 2022)

Experiments:
[1] = test system: circulating tumor DNA (ctDNA); assay: Circulating tumor DNA sequencing in plasma of one NSCLC patient; assay type: in vivo, human
Description: Moreover, we analyzed the patient who achieved SD for 24 weeks. The patient was a person with EGFR exon 19-21 wild type, ALK negative non-small cell lung cancer (NSCLC). They had failed 1 line of platinum-based chemotherapy with a PFS of 27 months. […] The plasma of the patient was prospectively collection on the first day of cycle 1, 3, 6, whole exon sequencing of 416 genes was performed to assess circulating tumor DNA (ctDNA) with Illumina platform. […] The patient received 6-time tumor assessments, the response was classified as SD ( Figure 5E ), and the nontarget lesions remained unchanged ( Figure 5F ). However, the patient experienced tumor progression after 6 cycles of CT053PTSA administration, and which point, the target lesion enlarged.

[2] = target: EphA6 (Homo sapiens, UniProt Q9UF33); assay: Kinase inhibition assay (LANCE or HTRF); assay type: biochemical; settings: ATP at Km
Description: (§2) The IC50 values were determined by measuring phosphorylation of peptide substrate poly at ATP concentrations at the Km.

[3] = target: AXL (Homo sapiens, UniProt P30530); assay: Kinase inhibition assay (LANCE or HTRF); assay type: biochemical; set-up: expressing full-length human AXL (AXL-MEFs); expressed in transfected cells; host or cells: mouse embryonic fibroblasts (MEFs); settings: ATP at Km
Description: as §2

[4] = test system: HUVECs; assay: Endothelial cell tubule formation assay, VEGF-induced; assay type: cell-based; settings: Homo sapiens, HUVEC, VEGF 40 ng/ml, 8 hours
Excerpt: Then, after staining with Calcein AM (ThermoFisher, CA, USA), images of tubule formation were captured, and the total tube area was quantified with ImageXpress HCS (Molecular Devices, CA, USA).

[5] = test system: NCI-N87; assay: Cell proliferation assay (CellTiter-Glo, 72 hours); assay type: cell-based; settings: Homo sapiens, read-out: IC50 anti-proliferative
Description: (§3) These cell lines were obtained from American Type Culture Collection (ATCC), Japanese Collection of Research Bioresources (JCRB), Shanghai Institutes of Biological Sciences, CAS (SIBS), Korean Cell Line Bank (KCLB) or National Institutes of Health (NIH). […] Cell viability was measured after 72 hours using a CellTiter-Glo Luminescent Cell Viability Assay Kit (Promega, WI, USA) according to the manufacturer’s instructions.

[6] = test system: GTL16; assay: Cell proliferation assay (CellTiter-Glo, 72 hours); assay type: cell-based; settings: Homo sapiens, GTL 16, read-out: IC50 anti-proliferative
Description: (§4) Human gastric tumor cell lines with high MET expression levels, namely, the GTL-16, MKN45, SNU638, Hs746T, SNU-620, and SNU-5 cell lines, were used in the assay. […] Cell viability was measured after 72 hours using a CellTiter-Glo Luminescent Cell Viability Assay Kit (Promega, WI, USA) according to the manufacturer’s instructions.

[7] = target: T1, FLT3 (Homo sapiens, UniProt P36888); assay: Kinase inhibition assay (LANCE or HTRF); assay type: biochemical; settings: ATP at Km
Description: as §2

[8] = target: VEGFR2 (Homo sapiens, UniProt P35968); assay: Kinase inhibition assay (LANCE or HTRF); assay type: biochemical; settings: ATP at Km
Description: as §2

[9] = target: Musk (Homo sapiens, UniProt O15146); assay: Kinase inhibition assay (LANCE or HTRF); assay type: biochemical; settings: ATP at Km
Description: as §2

[10] = test system: SNU638; assay: Cell proliferation assay (CellTiter-Glo, 72 hours); assay type: cell-based; settings: Homo sapiens, SNU-638, read-out: IC50 anti-proliferative
Description: as §4

[11] = test system: AZ521; assay: Cell proliferation assay (CellTiter-Glo, 72 hours); assay type: cell-based; settings: Homo sapiens, AZ-521, read-out: IC50 anti-proliferative
[12] = target: Yes (Homo sapiens, UniProt P07947); assay: Kinase inhibition assay (LANCE or HTRF); assay type: biochemical; settings: ATP at Km
Description: as §2

[13] = target: PDGFRα (Homo sapiens, UniProt P16234); assay: Kinase inhibition assay (LANCE or HTRF); assay type: biochemical; settings: ATP at Km
Description: as §2

[14] = target: Fer (Homo sapiens, UniProt P16591); assay: Kinase inhibition assay (LANCE or HTRF); assay type: biochemical; settings: ATP at Km
Description: as §2

[15] = target: FRK (Homo sapiens, UniProt P42685); assay: Kinase inhibition assay (LANCE or HTRF); assay type: biochemical; settings: ATP at Km
Description: as §2

[16] = test system: GA0046 PDX xenografts; assay: In vivo efficacy study, PDX model; set-up: species or system immunodeficient mice
Description: (§1) Human tumor xenografts were established in female BALB/cA nude mice (5-6 weeks old) by administering the SNU-5 and MKN-45 cells, which have high MET expression levels. For efficacy studies in patient-derived tumor xenograft (PDX) mouse models, MET-overexpressing GA0046 and GA3121 tumors (obtained from Crownbio, CA, USA) were established by directly implanting surgical tissues into immunodeficient mice. […] The subcutaneous tumor size and body weight were measured twice weekly. The tumor volumes were determined by measuring two perpendicular diameters with calipers and calculated as (length × width^2)/2.

[17] = test system: GA3121 PDX xenografts; assay: In vivo efficacy study, PDX model; set-up: species or system immunodeficient mice; settings: 20 mg/kg once per day oral gavage
Description: as §1

[18] = test system: MKN74; assay: Cell proliferation assay (CellTiter-Glo, 72 hours); assay type: cell-based; settings: Homo sapiens, MKN-74, read-out: IC50 anti-proliferative
[19] = target: T1, FLT3; assay: Cellular kinase phosphorylation assay (sandwich ELISA), FLT3-wt-MEFs, FLT3-ligand stimulated; assay type: cell-based; set-up: MEFs expressing full-length human FLT3 (FLT3-wt-MEFs); expressed in transfected cells; host or cells: mouse embryonic fibroblasts (MEFs); settings: FLT3-ligand 50 ng/ml
Description: Phosphorylation of the receptors MET, AXL, VEGFR2, and FLT3 was assessed in the transgenic human MKN45 gastric tumor cell line overexpressing MET, mouse embryonic fibroblasts (MEFs) expressing full-length human AXL (AXL-MEFs), human umbilical vein endothelial cells (HUVECs) overexpressing VEGFR-2, and MEFs expressing full-length human FLT3 (FLT3-wt-MEFs), respectively. […] Then, HUVECs and FLT3-wt-MEFs were stimulated with the ligands VEGF-A (100 ng/ml, for 3 min) and FLT3-ligand (50 ng/ml, for 5 min). MKN45 (overexpressing MET) and AXL-MEFs cells had no stimulation. […] Raw data were converted into percent substrate phosphorylation relative to high controls, which were set to 100%.

[20] = target: Tyro3 (Homo sapiens, UniProt Q06418); assay: Kinase inhibition assay (LANCE or HTRF); assay type: biochemical; settings: ATP at Km
Description: as §2

[21] = target: EphA4 (Homo sapiens, UniProt P54764); assay: Kinase inhibition assay (LANCE or HTRF); assay type: biochemical; settings: ATP at Km
Description: as §2

[22] = target: MNK2 (Homo sapiens, UniProt Q9HBH9); assay: Kinase inhibition assay (LANCE or HTRF); assay type: biochemical; settings: ATP at Km
Description: as §2

[23] = test system: KATOIII; assay: Cell proliferation assay (CellTiter-Glo, 72 hours); assay type: cell-based; settings: Homo sapiens, KATO III, read-out: IC50 anti-proliferative
Description: as §3

[24] = test system: SNU-5; assay: Cell proliferation assay (CellTiter-Glo, 72 hours); assay type: cell-based; settings: Homo sapiens, read-out: IC50 anti-proliferative
Description: as §4

[25] = test system: SNU-484; assay: Cell proliferation assay (CellTiter-Glo, 72 hours); assay type: cell-based; settings: Homo sapiens, read-out: IC50 anti-proliferative
[26] = test system: SNU620; assay: Cell proliferation assay (CellTiter-Glo, 72 hours); assay type: cell-based; settings: Homo sapiens, read-out: IC50 anti-proliferative
Description: as §4

T1 sequence (P36888 27-993): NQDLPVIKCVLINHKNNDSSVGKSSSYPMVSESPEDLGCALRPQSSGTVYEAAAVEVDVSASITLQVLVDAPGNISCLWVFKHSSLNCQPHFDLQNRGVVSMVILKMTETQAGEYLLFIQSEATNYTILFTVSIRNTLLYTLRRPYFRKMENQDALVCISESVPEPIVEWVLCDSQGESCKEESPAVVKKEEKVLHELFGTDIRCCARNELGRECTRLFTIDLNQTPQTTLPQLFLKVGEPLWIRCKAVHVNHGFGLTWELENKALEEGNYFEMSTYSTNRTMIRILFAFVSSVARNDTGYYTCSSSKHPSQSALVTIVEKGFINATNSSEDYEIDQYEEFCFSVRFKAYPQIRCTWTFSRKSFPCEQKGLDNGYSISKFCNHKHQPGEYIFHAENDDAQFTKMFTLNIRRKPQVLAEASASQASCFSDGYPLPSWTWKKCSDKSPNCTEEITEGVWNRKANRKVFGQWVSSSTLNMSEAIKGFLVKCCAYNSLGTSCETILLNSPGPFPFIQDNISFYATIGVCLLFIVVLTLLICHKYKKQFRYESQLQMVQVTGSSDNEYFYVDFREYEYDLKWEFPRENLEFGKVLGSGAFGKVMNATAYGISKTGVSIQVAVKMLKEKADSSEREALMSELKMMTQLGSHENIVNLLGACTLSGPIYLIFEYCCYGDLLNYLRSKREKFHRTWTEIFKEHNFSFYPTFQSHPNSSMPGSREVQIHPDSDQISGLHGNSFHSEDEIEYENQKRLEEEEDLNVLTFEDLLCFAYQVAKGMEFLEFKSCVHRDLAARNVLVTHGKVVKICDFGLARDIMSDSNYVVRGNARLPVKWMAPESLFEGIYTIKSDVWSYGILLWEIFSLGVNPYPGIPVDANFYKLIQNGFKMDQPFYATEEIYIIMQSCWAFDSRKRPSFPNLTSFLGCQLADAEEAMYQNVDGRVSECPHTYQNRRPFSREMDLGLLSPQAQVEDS
Sequence of Tyro3 (Q06418 41-890): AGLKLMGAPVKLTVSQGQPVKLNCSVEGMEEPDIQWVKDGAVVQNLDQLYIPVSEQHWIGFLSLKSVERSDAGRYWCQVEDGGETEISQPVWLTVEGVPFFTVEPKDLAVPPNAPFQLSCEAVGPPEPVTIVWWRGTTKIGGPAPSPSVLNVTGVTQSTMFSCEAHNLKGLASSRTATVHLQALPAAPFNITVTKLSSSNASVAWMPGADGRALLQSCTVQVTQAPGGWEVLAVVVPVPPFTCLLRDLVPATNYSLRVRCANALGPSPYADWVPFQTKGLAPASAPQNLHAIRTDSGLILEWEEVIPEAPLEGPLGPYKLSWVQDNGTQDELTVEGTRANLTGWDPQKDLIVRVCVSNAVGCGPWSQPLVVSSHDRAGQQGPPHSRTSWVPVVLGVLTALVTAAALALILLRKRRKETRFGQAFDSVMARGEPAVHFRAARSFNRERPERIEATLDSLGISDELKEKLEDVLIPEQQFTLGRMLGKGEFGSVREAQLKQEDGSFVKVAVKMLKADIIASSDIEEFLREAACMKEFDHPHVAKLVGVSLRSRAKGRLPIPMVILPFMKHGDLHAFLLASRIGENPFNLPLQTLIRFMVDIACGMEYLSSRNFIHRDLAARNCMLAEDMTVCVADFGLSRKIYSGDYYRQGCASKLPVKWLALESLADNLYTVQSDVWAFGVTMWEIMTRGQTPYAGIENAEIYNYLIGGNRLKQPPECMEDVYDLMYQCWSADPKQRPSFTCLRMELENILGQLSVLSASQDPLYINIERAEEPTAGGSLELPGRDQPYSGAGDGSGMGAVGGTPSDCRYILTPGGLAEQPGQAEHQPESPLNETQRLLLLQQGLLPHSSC
Sequence of AXL (P30530 26-894): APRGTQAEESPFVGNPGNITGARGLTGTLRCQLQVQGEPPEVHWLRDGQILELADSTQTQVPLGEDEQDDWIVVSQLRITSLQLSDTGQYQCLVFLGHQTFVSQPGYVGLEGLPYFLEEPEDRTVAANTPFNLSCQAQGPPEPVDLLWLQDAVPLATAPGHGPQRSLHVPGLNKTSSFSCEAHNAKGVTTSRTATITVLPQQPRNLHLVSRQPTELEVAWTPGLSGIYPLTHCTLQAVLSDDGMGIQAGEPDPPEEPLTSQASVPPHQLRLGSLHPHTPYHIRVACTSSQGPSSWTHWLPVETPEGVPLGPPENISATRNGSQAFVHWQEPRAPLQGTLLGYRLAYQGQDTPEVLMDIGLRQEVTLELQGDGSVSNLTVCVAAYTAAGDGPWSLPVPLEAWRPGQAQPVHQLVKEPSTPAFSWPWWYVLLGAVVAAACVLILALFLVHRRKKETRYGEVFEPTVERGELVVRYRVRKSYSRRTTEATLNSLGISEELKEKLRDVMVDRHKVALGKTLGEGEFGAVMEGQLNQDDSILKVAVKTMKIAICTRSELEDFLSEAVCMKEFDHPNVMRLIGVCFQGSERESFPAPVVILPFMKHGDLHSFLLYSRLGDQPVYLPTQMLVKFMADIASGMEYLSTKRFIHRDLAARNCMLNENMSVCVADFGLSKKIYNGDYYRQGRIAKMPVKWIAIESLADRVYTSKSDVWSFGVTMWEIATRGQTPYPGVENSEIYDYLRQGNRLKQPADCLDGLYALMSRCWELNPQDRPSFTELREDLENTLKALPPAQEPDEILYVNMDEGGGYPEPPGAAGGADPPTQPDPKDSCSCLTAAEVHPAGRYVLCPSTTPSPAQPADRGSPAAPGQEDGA
Sequence of PDGFRα (P16234 24-1089): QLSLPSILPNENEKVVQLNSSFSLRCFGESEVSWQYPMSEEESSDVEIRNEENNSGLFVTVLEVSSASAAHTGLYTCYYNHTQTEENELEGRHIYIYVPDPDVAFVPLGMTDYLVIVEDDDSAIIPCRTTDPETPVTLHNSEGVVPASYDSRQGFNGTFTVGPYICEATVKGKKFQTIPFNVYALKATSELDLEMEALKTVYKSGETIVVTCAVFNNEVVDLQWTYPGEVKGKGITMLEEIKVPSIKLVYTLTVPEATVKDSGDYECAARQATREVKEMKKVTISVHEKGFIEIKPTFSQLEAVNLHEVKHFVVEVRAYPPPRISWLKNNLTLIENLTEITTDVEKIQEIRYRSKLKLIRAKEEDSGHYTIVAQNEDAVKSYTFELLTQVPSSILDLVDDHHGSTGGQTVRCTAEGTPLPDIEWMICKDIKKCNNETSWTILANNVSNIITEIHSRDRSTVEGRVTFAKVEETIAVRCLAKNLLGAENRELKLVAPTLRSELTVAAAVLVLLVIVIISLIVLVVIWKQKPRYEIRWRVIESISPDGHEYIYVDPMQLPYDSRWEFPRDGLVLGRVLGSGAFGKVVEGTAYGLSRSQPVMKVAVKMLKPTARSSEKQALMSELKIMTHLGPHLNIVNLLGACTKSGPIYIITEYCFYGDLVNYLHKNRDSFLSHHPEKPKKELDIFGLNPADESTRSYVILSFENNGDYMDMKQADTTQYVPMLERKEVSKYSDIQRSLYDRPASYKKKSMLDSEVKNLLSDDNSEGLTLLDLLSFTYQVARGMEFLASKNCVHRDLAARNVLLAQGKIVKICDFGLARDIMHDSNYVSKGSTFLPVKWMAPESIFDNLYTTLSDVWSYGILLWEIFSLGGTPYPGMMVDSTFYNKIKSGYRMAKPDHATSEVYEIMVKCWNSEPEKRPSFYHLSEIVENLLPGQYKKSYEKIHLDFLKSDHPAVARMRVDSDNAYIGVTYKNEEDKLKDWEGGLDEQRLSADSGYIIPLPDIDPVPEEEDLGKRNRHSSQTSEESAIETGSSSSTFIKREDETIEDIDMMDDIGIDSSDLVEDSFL
Sequence of Yes (P07947 whole entry): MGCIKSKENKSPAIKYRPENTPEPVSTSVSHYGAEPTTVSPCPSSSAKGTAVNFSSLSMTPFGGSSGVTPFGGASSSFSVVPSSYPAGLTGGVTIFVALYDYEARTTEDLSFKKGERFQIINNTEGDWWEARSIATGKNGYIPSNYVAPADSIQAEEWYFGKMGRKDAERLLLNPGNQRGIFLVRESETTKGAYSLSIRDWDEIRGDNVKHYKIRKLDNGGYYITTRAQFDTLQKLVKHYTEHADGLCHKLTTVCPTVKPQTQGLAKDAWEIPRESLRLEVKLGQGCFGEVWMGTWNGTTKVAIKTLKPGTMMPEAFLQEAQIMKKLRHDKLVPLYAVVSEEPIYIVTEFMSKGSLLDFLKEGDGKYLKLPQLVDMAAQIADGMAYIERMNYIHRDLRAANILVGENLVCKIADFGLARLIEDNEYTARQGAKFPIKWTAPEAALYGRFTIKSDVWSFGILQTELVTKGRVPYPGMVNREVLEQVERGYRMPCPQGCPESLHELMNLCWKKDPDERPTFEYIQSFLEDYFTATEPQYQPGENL
Sequence of FRK (P42685 whole entry): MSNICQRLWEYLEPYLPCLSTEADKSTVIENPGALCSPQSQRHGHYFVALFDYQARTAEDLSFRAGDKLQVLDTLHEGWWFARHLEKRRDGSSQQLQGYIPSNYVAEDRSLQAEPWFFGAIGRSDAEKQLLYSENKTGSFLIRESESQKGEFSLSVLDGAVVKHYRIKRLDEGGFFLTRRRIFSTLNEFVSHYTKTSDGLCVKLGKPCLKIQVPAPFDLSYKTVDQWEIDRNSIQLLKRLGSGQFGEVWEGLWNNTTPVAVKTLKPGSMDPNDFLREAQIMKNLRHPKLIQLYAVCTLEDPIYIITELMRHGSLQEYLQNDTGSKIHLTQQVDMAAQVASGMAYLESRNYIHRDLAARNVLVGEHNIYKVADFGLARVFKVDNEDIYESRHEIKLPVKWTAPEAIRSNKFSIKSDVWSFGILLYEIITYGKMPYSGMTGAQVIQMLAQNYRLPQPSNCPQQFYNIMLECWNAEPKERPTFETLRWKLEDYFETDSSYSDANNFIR

Cc1c(C(=O)Nc2ccc(Oc3ccnc4cc(OCC(C)(C)O)ccc34)c(F)c2)c(=O)n(-c2ccccc2)n1C [CT053PTSA]
ctDNA APC p.E520X (c. G1558T) ([1]; Cycle 1, 60 mg): 0% | ctDNA AXL p. A79T (c. G235A) ([1]; Cycle 1, 60 mg): 0% | ctDNA BRCA1 p.E344X (c. G1030T) ([1]; Cycle 1, 60 mg): 0.32% | ctDNA EGFR p. F712Y (c. T2135A) ([1]; Cycle 1, 60 mg): 0.12% | ctDNA FLT3 p.p893L (c.C2678T) ([1]; Cycle 1, 60 mg): 0% | ctDNA FLT4 p.D998V (c.A2993T) ([1]; Cycle 1, 60 mg): 0% | ctDNA FP300 p.Q2332X (c.C6994T) ([1]; Cycle 1, 60 mg): 0.19% | ctDNA PALB2 p.C800X (c.T2400A) ([1]; Cycle 1, 60 mg): 0% | ctDNA APC p.E520X (c. G1558T) ([1]; Cycle 3, 60 mg): 0% | ctDNA AXL p. A79T (c. G235A) ([1]; Cycle 3, 60 mg): 0% | ctDNA BRCA1 p.E344X (c. G1030T) ([1]; Cycle 3, 60 mg): 0.12% | ctDNA EGFR p. F712Y (c. T2135A) ([1]; Cycle 3, 60 mg): 0% | ctDNA FLT3 p.p893L (c.C2678T) ([1]; Cycle 3, 60 mg): 0% | ctDNA FLT4 p.D998V (c.A2993T) ([1]; Cycle 3, 60 mg): 0% | ctDNA FP300 p.Q2332X (c.C6994T) ([1]; Cycle 3, 60 mg): 0.21% | ctDNA PALB2 p.C800X (c.T2400A) ([1]; Cycle 3, 60 mg): 0% | ctDNA APC p.E520X (c. G1558T) ([1]; Cycle 6, 60 mg): 0% | ctDNA AXL p. A79T (c. G235A) ([1]; Cycle 6, 60 mg): 0% | ctDNA BRCA1 p.E344X (c. G1030T) ([1]; Cycle 6, 60 mg): 0% | ctDNA EGFR p. F712Y (c. T2135A) ([1]; Cycle 6, 60 mg): 0% | ctDNA FLT3 p.p893L (c.C2678T) ([1]; Cycle 6, 60 mg): 0% | ctDNA FLT4 p.D998V (c.A2993T) ([1]; Cycle 6, 60 mg): 0% | ctDNA FP300 p.Q2332X (c.C6994T) ([1]; Cycle 6, 60 mg): 0% | ctDNA PALB2 p.C800X (c.T2400A) ([1]; Cycle 6, 60 mg): 0%

Cc1c(C(=O)Nc2ccc(Oc3ccnc4cc(OCC(C)(C)O)ccc34)c(F)c2)c(=O)n(-c2ccccc2)n1C [CT053]
IC50 [2]: 81 nM | IC50 [3]: 3.4 nM | IC50 ([4]; read-out: IC50, percentage area of tube formation (+ VEGF)): 20 nM | IC90 ([4]; read-out: IC90, Tube Area % Effect (+ VEGF)): 170 nM | IC50 [5]: > 10000 nM | IC50 [6]: 170 nM | IC50 [7]: 8.6 nM | IC50 [8]: 46 nM | IC50 [9]: 310 nM | IC50 [10]: 90 nM | IC50 [11]: > 10000 nM | IC50 [12]: 110 nM | IC50 [13]: 390 nM | IC50 [14]: 330 nM | IC50 [15]: 520 nM | TGI ([16]; 3 mg/kg once per day oral gavage): 18% | TGI ([16]; 10 mg/kg once per day oral gavage): 57% | TGI ([16]; 20 mg/kg once per day oral gavage): 75% | TGI [17]: 172% | IC50 [18]: 6880 nM | IC50 [19]: 1.5 nM | IC50 [20]: 150 nM | IC50 [21]: 370 nM | IC50 [22]: 55 nM | IC50 [23]: > 10000 nM | IC50 [24]: 60 nM | IC50 [25]: 8500 nM | IC50 [26]: 60 nM
